Laboratory results as given in ChEMBL document CHEMBL1201862, “PubChem BioAssay data set” (2004).
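1) Cells in 96-well plates. 2) Compound, 48 h, 5 concentrations. 3) Linear interpolation between surrounding doses. 4) Unreached endpoint = highest concentration. GI50 marks 50% less growth.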 Calls of active or inactive are those of the source. No stated cut-off is given here; in the data, active = GI50 up to about 1.1 µM and inactive = higher.

Key:
Assay in all cases: NCI anticancer screen, dose series, 48 h
NCI-H23 = test system: NCI-H23
OVCAR-4 = test system: OVCAR-4
SNB-75 = test system: SNB-75
SK-MEL-5 = test system: SK-MEL-5
DU-145 = test system: DU-145
IGROV-1 = test system: IGROV-1
HOP-92 = test system: HOP-92
KM12 = test system: KM12
SW-620 = test system: SW-620
UACC-257 = test system: UACC-257
TK-10 = test system: TK-10
NCI-H226 = test system: NCI-H226
MOLT-4 = test system: MOLT-4
Malme-3M = test system: Malme-3M
MCF7 = test system: MCF7
EKVX = test system: EKVX
RPMI-8226 = test system: RPMI-8226
U-251 = test system: U-251
MDA-MB-435 = test system: MDA-MB-435
SK-OV-3 = test system: SK-OV-3
A498 = test system: A498
ACHN = test system: ACHN
UACC-62 = test system: UACC-62
NCI-H460 = test system: NCI-H460
MDA-MB-231 = test system: MDA-MB-231
HL-60 = test system: HL-60
SF-539 = test system: SF-539
COLO 205 = test system: COLO 205
LOX IMVI = test system: LOX IMVI
SK-MEL-28 = test system: SK-MEL-28
SR = test system: SR
HOP-62 = test system: HOP-62
OVCAR-5 = test system: OVCAR-5
NCI/ADR-RES = test system: NCI/ADR-RES
CAKI-1 = test system: CAKI-1
PC-3 = test system: PC-3
OVCAR-8 = test system: OVCAR-8
NCI-H522 = test system: NCI-H522
HCC 2998 = test system: HCC 2998
HCT-15 = test system: HCT-15
BT-549 = test system: BT-549
CCRF-CEM = test system: CCRF-CEM
RXF 393 = test system: RXF 393
OVCAR-3 = test system: OVCAR-3
SF-295 = test system: SF-295
SK-MEL-2 = test system: SK-MEL-2
K562 = test system: K562
HT-29 = test system: HT-29
M14 = test system: M14
T47D = test system: T47D
786-0 = test system: 786-0
SF-268 = test system: SF-268
A549 = test system: A549
HCT-116 = test system: HCT-116
UO-31 = test system: UO-31
SNB-19 = test system: SNB-19
Hs-578T = test system: Hs-578T
SN12C = test system: SN12C

SMILES: C=CCN1C(=O)/C(=C/c2ccccc2)N=C1SC1OC(COC(=O)c2ccccc2)C(OC(=O)c2ccccc2)C1OC(=O)c1ccccc1 (stereo not given)
- GI50 (NCI-H23): > 100 µM (inactive)
- GI50 (OVCAR-4): > 100 µM (inactive)
- GI50 (SNB-75): > 100 µM (inactive)
- GI50 (SK-MEL-5): > 100 µM (inactive)
- GI50 (DU-145): > 100 µM (inactive)
- GI50 (IGROV-1): > 100 µM (inactive)
- GI50 (HOP-92): 60.5 µM (inactive)
- GI50 (KM12): > 100 µM (inactive)
- GI50 (SW-620): 79.8 µM (inactive)
- GI50 (UACC-257): 25.7 µM (inactive)
- GI50 (TK-10): > 100 µM (inactive)
- GI50 (NCI-H226): > 100 µM (inactive)
- GI50 (MOLT-4): > 100 µM (inactive)
- GI50 (Malme-3M): > 100 µM (inactive)
- GI50 (MCF7): 15.1 µM (inactive)
- GI50 (EKVX): > 100 µM (inactive)
- GI50 (RPMI-8226): 16.4 µM (inactive)
- GI50 (U-251): > 100 µM (inactive)
- GI50 (MDA-MB-435): > 100 µM (inactive)
- GI50 (SK-OV-3): > 100 µM (inactive)
- GI50 (A498): 49.8 µM (inactive)
- GI50 (ACHN): 30.3 µM (inactive)
- GI50 (UACC-62): 31.3 µM (inactive)
- GI50 (NCI-H460): > 100 µM (inactive)
- GI50 (MDA-MB-231): 91.2 µM (inactive)
- GI50 (HL-60): 32.8 µM (inactive)
- GI50 (SF-539): > 100 µM (inactive)
- GI50 (COLO 205): > 100 µM (inactive)
- GI50 (LOX IMVI): 78.3 µM (inactive)
- GI50 (SK-MEL-28): > 100 µM (inactive)
- GI50 (SR): 64.3 µM (inactive)
- GI50 (HOP-62): > 100 µM (inactive)
- GI50 (OVCAR-5): 44.3 µM (inactive)
- GI50 (NCI/ADR-RES): > 100 µM (inactive)
- GI50 (CAKI-1): 97.9 µM (inactive)
- GI50 (PC-3): > 100 µM (inactive)
- GI50 (OVCAR-8): > 100 µM (inactive)
- GI50 (NCI-H522): 10.4 µM (inactive)
- GI50 (HCC 2998): > 100 µM (inactive)
- GI50 (HCT-15): > 100 µM
- GI50 (BT-549): > 100 µM (inactive)
- GI50 (CCRF-CEM): 34.9 µM (inactive)
- GI50 (RXF 393): > 100 µM (inactive)
- GI50 (OVCAR-3): > 100 µM (inactive)
- GI50 (SF-295): > 100 µM (inactive)
- GI50 (SK-MEL-2): > 100 µM (inactive)
- GI50 (K562): 46.2 µM (inactive)

SMILES: COc1ccc(OC)c2c3c([nH]c12)C(=O)Nc1nc(N)nc(N)c1C3
- GI50 (OVCAR-4): > 100 µM (inactive)
- GI50 (DU-145): > 100 µM (inactive)
- GI50 (HT-29): 1.12 µM (inactive)
- GI50 (HOP-92): > 100 µM (inactive)
- GI50 (KM12): 4.57 µM (inactive)
- GI50 (SW-620): 2.07 µM (inactive)
- GI50 (UACC-257): > 100 µM (inactive)
- GI50 (TK-10): > 100 µM (inactive)
- GI50 (NCI-H226): > 100 µM (inactive)
- GI50 (Malme-3M): 30.8 µM (inactive)
- GI50 (EKVX): > 100 µM (inactive)
- GI50 (MDA-MB-435): 0.273 µM (active)
- GI50 (SK-OV-3): > 100 µM (inactive)
- GI50 (M14): > 100 µM (inactive)
- GI50 (LOX IMVI): > 100 µM (inactive)
- GI50 (SK-MEL-28): > 100 µM (inactive)
- GI50 (OVCAR-5): > 100 µM (inactive)
- GI50 (T47D): > 100 µM (inactive)
- GI50 (OVCAR-8): 4.89 µM (inactive)
- GI50 (HCC 2998): > 100 µM (inactive)
- GI50 (BT-549): > 100 µM (inactive)
- GI50 (786-0): > 100 µM (inactive)
- GI50 (RXF 393): > 100 µM (inactive)
- GI50 (OVCAR-3): 3.14 µM (inactive)
- GI50 (SK-MEL-2): > 100 µM (inactive)
- GI50 (K562): 0.634 µM (active)

SMILES: O=Nc1c(-c2cccc([N+](=O)[O-])c2)nc2cnccn12
- GI50 (NCI-H23): 16.7 µM (inactive)
- GI50 (OVCAR-4): 17.7 µM (inactive)
- GI50 (SNB-75): 35.2 µM (inactive)
- GI50 (SK-MEL-5): 29.4 µM (inactive)
- GI50 (DU-145): 16.4 µM (inactive)
- GI50 (IGROV-1): 17.4 µM (inactive)
- GI50 (HT-29): 14.3 µM (inactive)
- GI50 (HOP-92): 20 µM (inactive)
- GI50 (KM12): 30.9 µM (inactive)
- GI50 (SW-620): 10.1 µM (inactive)
- GI50 (UACC-257): 19.7 µM (inactive)
- GI50 (SF-268): 25.9 µM (inactive)
- GI50 (TK-10): 5.04 µM (inactive)
- GI50 (NCI-H226): 18.5 µM (inactive)
- GI50 (MOLT-4): 3.92 µM (inactive)
- GI50 (Malme-3M): 22.2 µM (inactive)
- GI50 (MCF7): 36 µM (inactive)
- GI50 (EKVX): 34 µM (inactive)
- GI50 (A549): 29.5 µM (inactive)
- GI50 (HCT-116): 4.68 µM (inactive)
- GI50 (U-251): 20.4 µM (inactive)
- GI50 (MDA-MB-435): 20.1 µM (inactive)
- GI50 (SK-OV-3): 68.7 µM (inactive)
- GI50 (ACHN): 3.63 µM (inactive)
- GI50 (UACC-62): 18.5 µM (inactive)
- GI50 (NCI-H460): 33.9 µM (inactive)
- GI50 (MDA-MB-231): 13.8 µM (inactive)
- GI50 (HL-60): 34.2 µM (inactive)
- GI50 (SF-539): 20.3 µM (inactive)
- GI50 (COLO 205): 20 µM (inactive)
- GI50 (M14): 18.7 µM (inactive)
- GI50 (UO-31): 11.7 µM (inactive)
- GI50 (LOX IMVI): 15.2 µM (inactive)
- GI50 (SNB-19): > 100 µM (inactive)
- GI50 (SK-MEL-28): 21.5 µM (inactive)
- GI50 (SR): 2.2 µM (inactive)
- GI50 (Hs-578T): 31.7 µM (inactive)
- GI50 (HOP-62): 26.6 µM (inactive)
- GI50 (OVCAR-5): 20.1 µM (inactive)
- GI50 (NCI/ADR-RES): 21.4 µM (inactive)
- GI50 (T47D): 15.1 µM (inactive)
- GI50 (CAKI-1): 17 µM (inactive)
- GI50 (PC-3): 24.9 µM (inactive)
- GI50 (OVCAR-8): 14.5 µM (inactive)
- GI50 (NCI-H522): 14.6 µM (inactive)
- GI50 (HCT-15): 14.5 µM
- GI50 (BT-549): 27.9 µM (inactive)
- GI50 (786-0): 16 µM (inactive)
- GI50 (CCRF-CEM): 0.14 µM (active)
- GI50 (RXF 393): 23 µM (inactive)
- GI50 (SN12C): 24.4 µM (inactive)
- GI50 (OVCAR-3): 16.8 µM (inactive)
- GI50 (SF-295): 43.4 µM (inactive)
- GI50 (SK-MEL-2): 27.9 µM (inactive)
- GI50 (K562): 18.3 µM (inactive)

SMILES: COc1ccc(-c2cc(O)c3cc(C)cnc3n2)cc1
- GI50 (NCI-H23): 6.19 µM (inactive)
- GI50 (OVCAR-4): 33.9 µM (inactive)
- GI50 (DU-145): 19.2 µM (inactive)
- GI50 (IGROV-1): 4.12 µM (inactive)
- GI50 (HT-29): 2.21 µM (inactive)
- GI50 (HOP-92): 13.8 µM (inactive)
- GI50 (KM12): 3.56 µM (inactive)
- GI50 (SW-620): 3.24 µM (inactive)
- GI50 (UACC-257): 5.64 µM (inactive)
- GI50 (SF-268): 6.81 µM (inactive)
- GI50 (TK-10): 2.86 µM (inactive)
- GI50 (NCI-H226): 13 µM (inactive)
- GI50 (MOLT-4): 4.43 µM (inactive)
- GI50 (Malme-3M): 4.67 µM (inactive)
- GI50 (MCF7): 2.72 µM (inactive)
- GI50 (EKVX): 37 µM (inactive)
- GI50 (A549): 8.65 µM (inactive)
- GI50 (RPMI-8226): 3.73 µM (inactive)
- GI50 (MDA-MB-435): 1.85 µM (inactive)
- GI50 (SK-OV-3): 4.14 µM (inactive)
- GI50 (A498): 7.29 µM (inactive)
- GI50 (ACHN): 7.06 µM (inactive)
- GI50 (UACC-62): 4.29 µM (inactive)
- GI50 (MDA-MB-231): 16.2 µM (inactive)
- GI50 (SF-539): 6.41 µM (inactive)
- GI50 (COLO 205): 3.22 µM (inactive)
- GI50 (M14): 3.94 µM (inactive)
- GI50 (UO-31): 7.85 µM (inactive)
- GI50 (LOX IMVI): 6.5 µM (inactive)
- GI50 (SNB-19): > 100 µM (inactive)
- GI50 (SK-MEL-28): 28.6 µM (inactive)
- GI50 (Hs-578T): 4.66 µM (inactive)
- GI50 (HOP-62): 6.56 µM (inactive)
- GI50 (OVCAR-5): 93.8 µM (inactive)
- GI50 (NCI/ADR-RES): 3.73 µM (inactive)
- GI50 (T47D): 5.38 µM (inactive)
- GI50 (CAKI-1): 6.11 µM (inactive)
- GI50 (OVCAR-8): 4.57 µM (inactive)
- GI50 (NCI-H522): 4.01 µM (inactive)
- GI50 (HCC 2998): 14.5 µM (inactive)
- GI50 (HCT-15): 3.23 µM
- GI50 (BT-549): 2 µM (inactive)
- GI50 (CCRF-CEM): 3.21 µM (inactive)
- GI50 (RXF 393): 7.94 µM (inactive)
- GI50 (SN12C): 5.13 µM (inactive)
- GI50 (SK-MEL-2): 3.5 µM (inactive)
- GI50 (K562): 2.29 µM (inactive)
